Test results: patent US20180021347A1, “COMPOSITION FOR THE TREATMENT OF HEPATIC VENO-OCCLUSIVE DISEASE” (priority 2015, published 2018)

How the values were obtained:
[1] = cited from earlier work
[2] = human, in vivo; cited from earlier work
[3] = cited from earlier work; remark: listed apart in the source
TSECs [4] = assay: Busulfan-induced death of TSECs (trypan blue cell viability); format: cell-based, human
Description: (Cheuk D K et al, Bone Marrow transplant 40: 935-944, 2007). We tested, if the toxicity of busulfan was amenable to in vitro studies on TSECs. Accordingly, we defined the concentration-response curve for busulfan-induced death of TSECs. In analogy to Raimer J et al (EurJClinPharmacol 68: 932-935, 2012), who had used ECV304 cells, we plated TSECs on collagen-coated plastic dishes (5×10^3 cells/24-well plate). After 24 hours, busulfan was added at increasing concentrations (10 μM-1 mM). The concentration range was based on reports in the literature and on the serum levels observed in patients undergoing myeloablative chemotherapy. Cell viability was assessed after 24, 48 and 72 h.
TSECs were plated on collagen-coated plastic dishes (5*10^3 cells/24-well plate). After 24 hours busulfan, a cell cycle non-specific alkylating antineoplastic agent, in the class of alkyl sulfonates with a chemical designation is 1,4-butanediol dimethanesulfonate, used as chemotherapeutic agent and known to induce VOD, was added at increasing concentrations (10 μM-1 mM). The concentration range is based on reports in the literature and on the serum levels observed in patients undergoing myeloablative chemotherapy. Cell viability was assessed after 24, 48 and 72 hours. For this purpose cells were washed twice with PBS, trypsinized, mixed with trypan blue (1:1 volumes) and counted using a hemocytometer. […] The data (means±standard deviation) shown represent cell death after for 48 hours.

TSECs [5] = assay: Yield of RNA/mRNA from TSECs after busulfan and treprostinil; format: cell-based, human
Description: In EC340 cells, concentrations as high as 300 μM were tolerated for 96h and allowed for investigating target gene expression and regulation upon treatment with busulfan. This concentration was not compatible with the extraction of mRNA in TSECs: the amount, quality and stability of mRNA were affected in a dose- and time-dependent manner (FIG. 5 and data not shown). […] Based on the time course of gene regulation in EC340 cells, we tested a treatment duration between of a minimum of 12h and a maximum of 96h (data not shown).
Cells were either treated with 125 μM, 250 μM or 300 μM BU, the combination thereof with treprostinil (10 μM), or treprostinil (10 μM) alone, or kept in standard medium [Endothelial Cell Medium, ECM Sciencell™, USA, TSECs containing 5% fetal bovine serum, 1% endothelial cell growth supplement (ECGS) and 1% penicillin/streptomycin at 37° C. and 5% CO2]. a) Total RNA was extracted by Trizol® (lifetechnologies) according to the manufacturer's protocol. RNA concentration (ng/μl) and purity was determined with Nanodrop 2000®. If equal numbers of cells (1.6×10^5) were seeded per well, treatment with 250 and 300 μM BU induced cell death in as much rendering reproducible and valid yields of absolute RNA content impossible, already after 48h of treatment. b) The absolute yield in RNA preparations (μg/μl) was compared between cells, which had been incubated in standard medium (untreated), and cells, which had been treated with BU (125 or 250 μM BU) plus treprostinil (10 μM Trep), or treprostinil alone.

[6] = system: plasminogen-activator inhibitor-1 (PAI-1); assay: qPCR of candidate target gene mRNA in TSECs: PAI-1; format: cell-based, human
Description: (§1) After pretreatment of TESCs with 10 μM treprostinil for 1 h, cells were co-incubated with 10 μM treprostinil and 125 μM BU for 24 h. Total RNA was extracted by the use of PARIS Kit (life technologies). cDNA synthesis was performed by High-Capacity Reverse Transcription Kit (applied biosystems); the resulting cDNA (equivalent to 50 ng RNA/reaction) was analyzed via qPCR (StepOnePlus real-time PCR System®, Applied Biosystems). 18s rRNA was used as a reference gene.
(§2) Based on preliminary experiments we identified plasminogen-activator inhibitor-1 (PAI-1), tissue factor (TF), tissue factor pathway inhibitor (TFPI) and thrombomodulin (TM) as suitable genes to study the potential of treprostinil to counteract busulfan-induced effects in TSECs. We also tested if busulfan-mediated effects are counteracted by 10 μM treprostinil. A total of 1.5×10^5 TESCs were plated in 6 well plates. As soon as 90% confluence was reached, cells were pretreated with treprostinil for 1 h, then cells were incubated for 24h in standard culture medium containing both BU and treprostinil. Thereafter, cells were washed and mRNA was prepared. Treprostinil counteracted the busulfan-induced increased expression of procoagulatory factors such as PAI-1 and TF (data not shown). […]

tissue factor (TF) = assay: qPCR of candidate target gene mRNA in TSECs: TF; format: cell-based, human
Description: as §1, §2

thrombomodulin (TM) = assay: qPCR of candidate target gene mRNA in TSECs: TM; format: cell-based, human; conditions: data not shown
Description: as §1, §2

[7] = system: tissue factor pathway inhibitor (TFPI); assay: qPCR of candidate target gene mRNA in TSECs: TFPI; format: cell-based, human
Description: as §1
Based on preliminary experiments we identified plasminogen-activator inhibitor-1 (PAI-1), tissue factor (TF), tissue factor pathway inhibitor (TFPI) and thrombomodulin (TM) as suitable genes to study the potential of treprostinil to counteract busulfan-induced effects in TSECs. We also tested if busulfan-mediated effects are counteracted by 10 μM treprostinil. A total of 1.5×10^5 TESCs were plated in 6 well plates. As soon as 90% confluence was reached, cells were pretreated with treprostinil for 1 h, then cells were incubated for 24h in standard culture medium containing both BU and treprostinil. Thereafter, cells were washed and mRNA was prepared. Treprostinil counteracted the busulfan-induced increased expression of procoagulatory factors such as PAI-1 and TF (data not shown). […] These observations justify the use of TSECs as an in vitro model system to study surrogate parameters, which are predictive of an increased risk of VOD in vivo.
Treatment of TESCs was performed as indicated in the legend to FIG. 6. Treprostinil-treatment was initiated 1 h prior to addition of busulfan. Cells were collected 24 h later.

EC340 cells = conditions: 96h; cited from earlier work
EP3-receptors = molecular target: T1, EP3-receptors (Homo sapiens, UniProt P43115); conditions: inhibitory Gi-coupled EP3-receptors; cited from earlier work
T1 sequence (P43115 1-390): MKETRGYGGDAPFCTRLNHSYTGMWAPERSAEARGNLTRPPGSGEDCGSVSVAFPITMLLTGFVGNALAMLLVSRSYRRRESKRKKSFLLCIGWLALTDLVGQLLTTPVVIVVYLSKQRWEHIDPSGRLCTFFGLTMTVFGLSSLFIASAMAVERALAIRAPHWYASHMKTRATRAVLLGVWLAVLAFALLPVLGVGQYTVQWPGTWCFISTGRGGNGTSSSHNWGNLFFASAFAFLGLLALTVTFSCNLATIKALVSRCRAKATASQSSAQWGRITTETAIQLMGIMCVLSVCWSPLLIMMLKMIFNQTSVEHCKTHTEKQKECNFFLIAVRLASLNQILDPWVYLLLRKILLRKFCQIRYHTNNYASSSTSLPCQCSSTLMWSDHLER

TSECs [8] = assay: Attenuation by treprostinil of busulfan-induced cell death in TSECs; format: cell-based, human
Description: TSECs were pretreated with treprostinil (10 μM) for 1 h and examined, if this protected them against busulfan-induced cell death by challenging them—in the continuous presence of treprostinil—with 125 and 250 μM and 500 μM Busulfan (BU). After 24 h, cell viability was determined by counting detached cells in a haemocytometer and determining the number of trypan blue-positive (=dead) and trypan-blue excluding (=live) cells.
TSECs were plated on collagen-coated plastic dishes (5*10^3 cells/24-well plate). After 24 hours treprostinil was added at a concentration of […]. One hour later, busulfan was added at increasing concentrations. Cell viability was assessed after 48 hours.
We examined the concentration range, in which treprostinil protected TSECs against busulfan-induced cell death. TSECs were plated on collagen-coated plastic dishes and after 24 h treprostinil was added at concentrations of 5, 10 and 20 pM. One hour later, busulfan was added at concentrations of 125 and 250 μM. Cell viability was assessed after 48 h. […] The data were analyzed using a 2-way ANOVA.
TSECs were plated on collagen-coated plastic dishes (5*10^3 cells/24-well plate). After 24 hours treprostinil was added at concentrations of 5, 10 and 20 pM. One hour later, busulfan was added at concentration of 125 and 250 μM. Cell viability was assessed after 48 hours. Even low concentrations of treprostinil (5 μM) attenuated busulfan induced cell death. […] The data were analyzed by two-way ANOVA. A Bonferroni post hoc test was conducted to test for differences between individual treatment groups.

[9] = system: intracellular cAMP levels in TSECs; assay: cAMP accumulation in TSECs; format: cell-based, human; conditions: 1 h
Description: It is desirable to understand the mechanisms, which allow treprostinil to modulate busulfan-induced gene expression, because this allows for searching for additional target genes. It was assumed that the action of treprostinil is mediated by an increased accumulation of cAMP. […] This was seen both, in the presence of 30 μM forskolin ([…], left hand panel) and if the concentration of forskolin was titrated between 1 and 30 μM (FIG. 6, middle and right hand panel). It was also seen regardless of whether [^3H]cAMP was low (FIG. 6, middle panel) or high (FIG. 6, right hand panel).
Control cells were incubated in standard medium. For comparison, cAMP accumulation was also assessed after incubation with dmPGE2. […] In the third experiment, the response was higher, presumably due to more extensive labelling of the adenine nucleotide pool. However, in none of the experiments tested, treprostinil alone sufficed to increase intracellular cAMP levels over that seen in untreated control cells.

EP2-receptors = EP2-receptors (Homo sapiens, UniProt P43116); conditions: cited from earlier work
EP4-receptors = EP4-receptors (Homo sapiens, UniProt P35408); conditions: cited from earlier work
[10] = 10 μM treprostinil 1 h pretreatment, then with 125 μM BU for 24 h, data not shown

Chain of EP2-receptors (P43116 whole entry): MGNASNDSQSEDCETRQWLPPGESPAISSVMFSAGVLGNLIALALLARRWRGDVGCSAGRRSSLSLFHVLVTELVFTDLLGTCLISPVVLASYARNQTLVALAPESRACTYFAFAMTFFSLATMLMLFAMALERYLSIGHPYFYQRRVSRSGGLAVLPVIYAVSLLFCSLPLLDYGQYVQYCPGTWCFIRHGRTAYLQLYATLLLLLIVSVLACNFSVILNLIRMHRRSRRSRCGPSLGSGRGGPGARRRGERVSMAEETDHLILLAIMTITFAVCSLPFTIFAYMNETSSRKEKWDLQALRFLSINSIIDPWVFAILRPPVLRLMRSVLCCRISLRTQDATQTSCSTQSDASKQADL
Chain of EP4-receptors (P35408 whole entry): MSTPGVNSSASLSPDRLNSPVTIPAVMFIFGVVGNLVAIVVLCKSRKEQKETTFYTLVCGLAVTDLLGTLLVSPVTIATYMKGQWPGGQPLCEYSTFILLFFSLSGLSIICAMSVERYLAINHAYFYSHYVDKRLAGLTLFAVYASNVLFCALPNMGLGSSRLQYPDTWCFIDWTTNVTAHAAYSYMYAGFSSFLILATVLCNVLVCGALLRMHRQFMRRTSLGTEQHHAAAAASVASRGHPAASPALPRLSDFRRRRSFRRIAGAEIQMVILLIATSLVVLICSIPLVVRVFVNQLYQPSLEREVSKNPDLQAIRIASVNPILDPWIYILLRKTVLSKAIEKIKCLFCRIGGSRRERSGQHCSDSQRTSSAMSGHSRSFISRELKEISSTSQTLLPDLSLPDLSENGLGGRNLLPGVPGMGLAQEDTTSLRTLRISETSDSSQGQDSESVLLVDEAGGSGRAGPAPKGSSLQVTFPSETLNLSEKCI

CCCCC[C@H](O)/C=C/[C@@H]1[C@H]2C/C(=C/CCCC(=O)O)O[C@H]2C[C@H]1O [Flolan]
serum half-life [1]: very short | maximum tolerable dosage [2]: 5 to 8 ng/kg/day

CCCCC[C@H](O)/C=C/[C@H]1[C@H](O)CC(=O)[C@@H]1CCCCCCC(=O)O [PGE1, prostaglandin E1]
advantage in VOD ([3]; PGE1 alone (Senzolo M. et al., 2007)): failed to show any advantage

CS(=O)(=O)OCCCCOS(C)(=O)=O [busulfan, 1,4-butanediol dimethanesulfonate]
cell death of TSECs, concentration dependence (TSECs [4]; busulfan 10 μM-1 mM, 48 hours, absence of hepatocytes (FIG. 2)): induced cell death in a concentration dependent manner | cell death of TSECs (TSECs [4]; busulfan 10 μM-1 mM, after 24 h): No obvious cell death | cell death of TSECs (TSECs [4]; busulfan, also at lower concentrations, after 72 h): almost complete cell death | highest busulfan concentration allowing harvest of mRNA of adequate quality for qPCR (TSECs [5]; 48 h pretreatment of TSECs): 125 µM | yield of RNA compared to untreated cells (100%) (TSECs [5]; busulfan 125 μM for 48h): 85% | yield of RNA compared to untreated cells (100%) (TSECs [5]; busulfan 250 μM for 48h): 74% | PAI-1 expression ([6]; busulfan 125 μM, 24 h): induces the expression | TF expression (tissue factor (TF); busulfan 125 μM, 24 h): induces the expression | thrombomodulin (TM) expression (thrombomodulin (TM); busulfan 125 μM, 24 h): decreased the expression | expression of TFPI ([7]; busulfan): induced | tolerated concentration (EC340 cells): ≤ 300 µM

CCCCC(C)(C)[C@H](O)/C=C/[C@H]1[C@H](O)CC(=O)[C@@H]1C/C=C\CCCC(=O)O [dimethyl-PGE2]
agonism at EP3-receptors (EP3-receptors): full agonist

CCCCC[C@H](O)/C=C/[C@H]1[C@H](O)CC(=O)[C@@H]1C/C=C\CCCC(=O)O [prostaglandin E2]
incidence of VOD ([3]; in combination with heparin (Senzolo M. et al., 2007)): lower incidence of VOD

CCCCC[C@H](O)CC[C@@H]1[C@H]2Cc3cccc(OCC(=O)[O-])c3C[C@H]2C[C@H]1O.[Na+] [treprostinil, (1R,2R,3aS,9aS)-[[2,3,3a,4,9,9a-hexahydro-2-hydroxy-1-[(3S)-3-hydroxyoctyl]-1H-benz[f]inden-5-yl]oxy]acetic acid monosodium salt]
concentration close to saturation of protection against busulfan-induced cell death (TSECs [8]; busulfan 125 and 250 μM, 48 h): 10 µM | cell viability (TSECs [8]; treprostinil 10 pM added 1 hour before busulfan 125 and 250 μM, 48 hours): increased viability | effect on busulfan-induced cell death (TSECs [8]; treprostinil 5 μM, busulfan 125 and 250 μM, 48 h): attenuated busulfan-induced cell death | effect on BU-induced toxicity (cell viability) (TSECs [8]; treprostinil 10 μM, 1 h pretreatment, busulfan 125, 250 and 500 μM, after 24 h, three independent experiments): attenuated BU-induced toxicity | beneficial effect on busulfan induced cell death at higher concentrations (TSECs [8]; treprostinil above 5 μM (10 and 20), busulfan 125 and 250 μM, 48 hours): did not increase at higher concentrations | loss in RNA yield (TSECs [5]; busulfan plus 10 μM treprostinil, pretreated 1 hour and co-incubated 24 h): 11% | RNA content compared to control cells (TSECs [5]; treprostinil alone (10 μM), 5 independent RNA preparations): 111% | effect on busulfan-induced increased expression of PAI-1 [6, 10]: counteracted | effect on busulfan-induced increased expression of TF (tissue factor (TF); [10]): counteracted | effect on busulfan-induced decrease of TM expression (thrombomodulin (TM); 10 μM treprostinil 1 h pretreatment, then with 125 μM BU for 24 h): mitigated the effect of busulfan | expression of TFPI ([7]; treprostinil): induced | regulation of expression of mRNA of TFPI, concentration dependence ([7]; treprostinil in TESCs): concentration-dependent manner | intracellular cAMP levels ([9]; sole addition of treprostinil): did not suffice to increase intracellular cAMP levels | intracellular cAMP levels ([9]; treprostinil 10 μM, cells sensitized with forskolin (1 to 30 μM)): further increased intracellular cAMP levels | agonism at EP3-receptors (EP3-receptors): low affinity agonist | stimulation of EP2-receptors (EP2-receptors): selectively stimulates | stimulation of EP4-receptors (EP4-receptors): selectively stimulates
